{"source": "paper PMC7718273", "about": "(Scientific Reports, 2020)", "key": {"[1]": {"test_system": "T1, endogenous mouse FAP", "T1 construct": "from tissue; host or cells: mouse serum/plasma (ob/ob and C57BL/6J mice)", "assay": "Acute study using ob/ob mice: plasma FAP activity", "assay_type": "in vivo", "settings": "single oral dose 20 or 50 mg/kg, in 1 h, maintained up to 9 h"}, "[2]": {"assay": "Microsomal stability, mouse", "assay_type": "in vitro ADME", "settings": "liver microsomes, pH 7.4, mouse (M), 0.5 mg/mL, NADPH, read-out: Microsomal stability (% remaining at 60 min)", "method": "(§1) Aliquots were then transferred in duplicate to: (i) a final concentration plate that was immediately quenched with 23.6 ng/mL internal standard (IS, chlorpropamide) in acetonitrile (ACN) or (ii) tubes, which were centrifuged for 5 min at 4℃ (14,000 rpm). The samples were subjected to LC–MS/MS analysis on an AB Sciex 4000 Q Trap hybrid triple quadrupole linear ion-trap MS (AB Sciex, Framingham, MA) coupled to an Agilent 1200 HPLC (Agilent Tech. Santa Clara, CA) with a reverse-phase Kinetex XB-C18 column (2.1 × 100 mm, 2.6 µm; Phenomenex). Mobile phases were comprised of 0.1% formic acid (FA) in water (A) and 0.1 FA in ACN (B). Data analysis was performed using […] (Ver. 1.6.1)."}, "[3]": {"test_system": "Normal cynomolgus monkeys", "assay": "In vivo study using cynomolgus monkeys: plasma concentration and intact FGF21", "settings": "cynomolgus monkeys (n = 3), 50 mg/kg intranasal, range of individual animals", "procedure": "Intact FGF21 levels in plasma were measured by ELISA.\nFAP activity and intact FGF21 concentrations were measured as described above."}, "[4]": {"assay": "Plasma stability, rat", "assay_type": "in vitro ADME", "settings": "pH 7.4, rat (R), read-out: Plasma stability (% remaining at 60 min)", "method": "as §1"}, "[5]": {"molecular_target": "T2, hERG (Homo sapiens, UniProt Q12809)", "T2 construct": "purchased Invitrogen; host or cells: membrane preparation of the kit", "T2 sequence (Q12809 whole entry)": "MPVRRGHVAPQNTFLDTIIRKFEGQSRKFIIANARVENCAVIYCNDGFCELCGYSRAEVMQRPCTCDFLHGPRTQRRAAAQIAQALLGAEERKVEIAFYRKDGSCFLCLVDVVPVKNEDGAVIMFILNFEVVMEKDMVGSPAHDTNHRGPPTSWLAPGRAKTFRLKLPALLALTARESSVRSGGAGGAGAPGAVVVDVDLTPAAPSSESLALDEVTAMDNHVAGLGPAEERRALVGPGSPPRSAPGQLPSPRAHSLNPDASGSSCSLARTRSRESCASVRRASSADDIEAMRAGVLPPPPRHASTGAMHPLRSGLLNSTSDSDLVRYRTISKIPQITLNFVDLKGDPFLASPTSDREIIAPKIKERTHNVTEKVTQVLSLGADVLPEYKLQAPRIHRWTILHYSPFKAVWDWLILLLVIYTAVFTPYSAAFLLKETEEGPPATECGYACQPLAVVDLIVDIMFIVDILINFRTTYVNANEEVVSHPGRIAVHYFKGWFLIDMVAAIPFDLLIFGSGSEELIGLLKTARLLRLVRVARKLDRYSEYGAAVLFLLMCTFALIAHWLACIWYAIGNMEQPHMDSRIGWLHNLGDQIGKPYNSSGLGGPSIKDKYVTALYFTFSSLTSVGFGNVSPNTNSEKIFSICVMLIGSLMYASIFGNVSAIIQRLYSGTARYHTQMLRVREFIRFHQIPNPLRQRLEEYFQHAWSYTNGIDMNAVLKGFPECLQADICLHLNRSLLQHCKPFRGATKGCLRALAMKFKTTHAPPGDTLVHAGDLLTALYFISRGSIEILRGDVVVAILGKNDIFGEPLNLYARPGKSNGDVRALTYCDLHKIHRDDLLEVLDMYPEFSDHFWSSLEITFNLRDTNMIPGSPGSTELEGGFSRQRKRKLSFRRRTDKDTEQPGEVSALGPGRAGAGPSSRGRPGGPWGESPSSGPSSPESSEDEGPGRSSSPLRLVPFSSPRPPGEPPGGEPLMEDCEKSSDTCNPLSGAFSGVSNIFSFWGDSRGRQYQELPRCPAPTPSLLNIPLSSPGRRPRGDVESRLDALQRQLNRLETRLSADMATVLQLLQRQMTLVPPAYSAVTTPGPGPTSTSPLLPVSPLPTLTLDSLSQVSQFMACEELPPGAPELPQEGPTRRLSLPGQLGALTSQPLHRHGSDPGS", "assay": "hERG binding assay based on fluorescence polarization", "method": "Predictor hERG Assay test kits were obtained from Invitrogen (Carlsbad, CA). The binding assay was carried out according to the manufacturer’s instructions. […] Working Tracer solution (5 μL) was then added and the plate was allowed to incubate at room temperature for at least 1 h, and then fluorescence polarization was measured using the Synergy 4 Hybrid Microplate Reader from BioTek Instruments (Winooski, VT) with 530/25 excitation and 590/35 emission filters along with a 570 nm cut off dichroic mirror. Polarization values were calculated automatically using Gen Data Analysis Software (BioTek Instruments). The above protocol is described in detail in the Invitrogen’s application note."}, "[6]": {"assay": "Microsomal stability, rat", "assay_type": "in vitro ADME", "settings": "liver microsomes, pH 7.4, rat (R), 0.5 mg/mL, NADPH, read-out: Microsomal stability (% remaining at 60 min)", "method": "as §1"}, "[7]": {"assay": "Pharmacokinetic study in rats", "assay_type": "in vivo", "settings": "male, Sprague-Dawley, plasma, rat, oral 10 mg/kg", "source_text": "Six male Sprague–Dawley rats (7-week-old, 240–250 g) were obtained from Orient Bio INC. (Seongnam, Gyeonggi-do, Korea) and maintained at 22℃ on a 12-h light/12-h dark cycle with free access to water. All animals were maintained under such conditions for a minimum of 2 weeks prior to initiation of the studies. […] Plasma sample preparations and analysis were the same as described in mice study."}}, "data": [{"smiles": "N#Cc1ccc(Cc2nc(C(=O)NCC(=O)N3CC(F)(F)C[C@H]3C#N)cs2)cc1", "note": "[BR103354, (S)-N-(2-(2-cyano-4,4-difluoropyrrolidin-1-yl)-2-oxoethyl)-2-(4-cyanobenzyl)thiazole-4-carboxamide]", "values": [{"measurement": "inhibition of plasma FAP activity", "setting": "[1]", "result": "more than 70%"}, {"measurement": "remaining at 1 h, 1 µM", "setting": "[2]", "result": 98, "unit": "%"}, {"measurement": "increase of intact FGF21, maximal", "setting": "[3]", "result": "1.5–3.5 fold"}, {"measurement": "remaining at 1 h, 1 µM", "setting": "[4]", "result": 79, "unit": "%"}, {"measurement": "IC50", "setting": "[5]", "result": "> 788", "unit": "µM"}, {"measurement": "remaining at 1 h, 1 µM", "setting": "[6]", "result": 87, "unit": "%"}, {"measurement": "Cmax", "setting": "[7]", "result": 4400, "unit": "ng/mL"}, {"measurement": "Tmax", "setting": "[7]", "result": 1.1, "unit": "h"}, {"measurement": "half-life", "setting": "[7]", "result": 3.5, "unit": "h"}, {"measurement": "AUC(0-t)", "setting": "[7]; read-out: AUC(0–6 h)", "result": 19700, "unit": "ng·h/mL"}]}]}
